Patent publication US20260138959A1, “QUINAZOLINE DERIVATIVE COMPOUND AND USE THEREOF” (VORONOI INC., priority 2021, published 2026)

Assays:
c-KIT D814Y = assay: Proliferation inhibitory activity on Ba/F3 cell (CellTiter-Glo, 72 hours), c-KIT D814Y; format: cell-based; settings: Mus musculus, BaF3, c-KIT D814Y cells, read-out: Cell (nM) c-KIT D814Y (GI50 class)
Description: (§1) Ba/F3-TEL-PDGFRα(WT), Ba/F3-TEL-PDGFβ(WT), Ba/F3-c-KIT(D816V) (Kyinno, #KC-0138), c-KIT V560G/D816V, c-KIT D814Y were seeded at 3×10^3/100 μl/well in a clear bottom white 96-well plate. A culture solution containing compounds of 12 concentrations (0.00001-2 mM) serially diluted in 3 folds and the DMSO control group was added at 0.5 μl/well each to a final concentration of 0.00005-10 μM, and then incubated in a CO2 incubator at 37° C. for 72 hours. After 72 hours, the plate treated with the compound was taken out, CellTiter-Glo® Assay (Promega) solution was treated with 100 μl/well, followed by mixing well. After mixing well for about 10 minutes at room temperature, […] was measured using a microplate reader. The data were presented as percentages in proportion to treated cells based on the vehicle, GI50 (nM) values were calculated using GraphPad Prism 8.3.0 (GraphPad software Inc., San Diego).
(§2) The inhibitory activities of Ba/F3 expressing PDGFR-α, PDGFR-β, c-KIT(D816V), c-KIT V560G/D816V, and c-KIT D814Y measured as described above were measured and shown in Table 7 below (A: GI50≤200 nM; B: 200 nM<GI50≤500 nM; C: GI50>500 nM).

Ba/F3-TEL-PDGFβ(WT) = assay: Proliferation inhibitory activity on Ba/F3 cell (CellTiter-Glo, 72 hours), PDGFR-β; format: cell-based; settings: Mus musculus, BaF3, read-out: Ba/F3 (nM) Tel-PDGFRβ (GI50 class)
Summary of the method: (§3)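 In this assay, Ba/F3 transfectants are treated for 72 h at 37 °C with serially diluted compound (final 0.00005-10 μM), and viable cells are quantified by CellTiter-Glo. Results are expressed relative to vehicle to give GI50 in nM.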

c-KIT V560G/D816V = assay: Proliferation inhibitory activity on Ba/F3 cell (CellTiter-Glo, 72 hours), c-KIT V560G/D816V; format: cell-based; settings: Mus musculus, BaF3, c-KIT V560G/D816V cells, read-out: Cell (nM) c-KIT V560G/D816V (GI50 class)
Summary of the method: as §3

Ba/F3-c-KIT(D816V) = assay: Proliferation inhibitory activity on Ba/F3 cell (CellTiter-Glo, 72 hours), c-KIT(D816V); format: cell-based; settings: Mus musculus, BaF3, read-out: Ba/F3 (nM) c-KIT (D816V) (GI50 class)
Summary of the method: as §3

human PDGFR-β(wt) = biological target: T1, human PDGFR-β(wt) (Homo sapiens, UniProt P09619); assay: Enzyme inhibitory activity, ADP-Glo kinase assay, PDGFR-β(wt); format: biochemical; settings: read-out: PDGFR-β (IC50 class)
T1 construct: purchased Signalchem P13-11G
T1 sequence (P09619 33-1106): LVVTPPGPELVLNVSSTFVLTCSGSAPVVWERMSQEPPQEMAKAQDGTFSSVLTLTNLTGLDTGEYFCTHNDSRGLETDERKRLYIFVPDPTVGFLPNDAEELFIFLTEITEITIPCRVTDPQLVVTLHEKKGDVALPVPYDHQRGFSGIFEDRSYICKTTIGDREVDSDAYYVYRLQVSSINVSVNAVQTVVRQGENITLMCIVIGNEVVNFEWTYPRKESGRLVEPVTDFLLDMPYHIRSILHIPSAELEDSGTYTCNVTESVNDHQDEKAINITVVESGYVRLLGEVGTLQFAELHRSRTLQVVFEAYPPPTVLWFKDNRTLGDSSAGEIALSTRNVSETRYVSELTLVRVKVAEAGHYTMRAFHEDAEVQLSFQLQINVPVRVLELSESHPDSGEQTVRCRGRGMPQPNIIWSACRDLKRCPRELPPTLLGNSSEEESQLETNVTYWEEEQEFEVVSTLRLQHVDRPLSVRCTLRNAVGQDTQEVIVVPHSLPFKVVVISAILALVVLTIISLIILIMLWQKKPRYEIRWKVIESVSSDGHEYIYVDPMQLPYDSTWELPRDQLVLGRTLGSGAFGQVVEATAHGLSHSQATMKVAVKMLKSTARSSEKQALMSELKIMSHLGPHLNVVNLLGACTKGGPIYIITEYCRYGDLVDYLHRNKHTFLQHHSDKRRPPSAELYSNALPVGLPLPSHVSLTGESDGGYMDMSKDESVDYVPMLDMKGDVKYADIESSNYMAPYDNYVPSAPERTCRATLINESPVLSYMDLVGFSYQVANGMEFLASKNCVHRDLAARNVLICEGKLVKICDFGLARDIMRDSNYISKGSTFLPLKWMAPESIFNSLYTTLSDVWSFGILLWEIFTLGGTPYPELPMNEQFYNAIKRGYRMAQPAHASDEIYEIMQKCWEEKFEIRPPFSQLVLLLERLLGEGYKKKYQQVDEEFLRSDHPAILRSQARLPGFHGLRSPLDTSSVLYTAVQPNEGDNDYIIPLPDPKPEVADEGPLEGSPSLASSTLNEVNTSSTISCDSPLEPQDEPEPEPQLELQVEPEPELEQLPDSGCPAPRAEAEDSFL
Summary of the method: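 Purified human kinases incubated with ATP and substrate 1–2 h at 25 °C in 40 mM Tris-HCl pH 7.4, 20 mM MgCl2, BSA, DTT, compound over 12 concentrations (10–0.00005645 μM final). ADP formed quantified by ADP-Glo luminescence; IC50 from inhibition versus DMSO control, reported in bins A–D.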

human PDGFR-α(wt) = biological target: T2, human PDGFR-α(wt) (Homo sapiens, UniProt P16234); assay: Enzyme inhibitory activity, ADP-Glo kinase assay, PDGFR-α(wt); format: biochemical; settings: read-out: PDGFR-α (IC50 class)
T2 construct: purchased Signalchem P12-18G
T2 sequence (P16234 24-1089): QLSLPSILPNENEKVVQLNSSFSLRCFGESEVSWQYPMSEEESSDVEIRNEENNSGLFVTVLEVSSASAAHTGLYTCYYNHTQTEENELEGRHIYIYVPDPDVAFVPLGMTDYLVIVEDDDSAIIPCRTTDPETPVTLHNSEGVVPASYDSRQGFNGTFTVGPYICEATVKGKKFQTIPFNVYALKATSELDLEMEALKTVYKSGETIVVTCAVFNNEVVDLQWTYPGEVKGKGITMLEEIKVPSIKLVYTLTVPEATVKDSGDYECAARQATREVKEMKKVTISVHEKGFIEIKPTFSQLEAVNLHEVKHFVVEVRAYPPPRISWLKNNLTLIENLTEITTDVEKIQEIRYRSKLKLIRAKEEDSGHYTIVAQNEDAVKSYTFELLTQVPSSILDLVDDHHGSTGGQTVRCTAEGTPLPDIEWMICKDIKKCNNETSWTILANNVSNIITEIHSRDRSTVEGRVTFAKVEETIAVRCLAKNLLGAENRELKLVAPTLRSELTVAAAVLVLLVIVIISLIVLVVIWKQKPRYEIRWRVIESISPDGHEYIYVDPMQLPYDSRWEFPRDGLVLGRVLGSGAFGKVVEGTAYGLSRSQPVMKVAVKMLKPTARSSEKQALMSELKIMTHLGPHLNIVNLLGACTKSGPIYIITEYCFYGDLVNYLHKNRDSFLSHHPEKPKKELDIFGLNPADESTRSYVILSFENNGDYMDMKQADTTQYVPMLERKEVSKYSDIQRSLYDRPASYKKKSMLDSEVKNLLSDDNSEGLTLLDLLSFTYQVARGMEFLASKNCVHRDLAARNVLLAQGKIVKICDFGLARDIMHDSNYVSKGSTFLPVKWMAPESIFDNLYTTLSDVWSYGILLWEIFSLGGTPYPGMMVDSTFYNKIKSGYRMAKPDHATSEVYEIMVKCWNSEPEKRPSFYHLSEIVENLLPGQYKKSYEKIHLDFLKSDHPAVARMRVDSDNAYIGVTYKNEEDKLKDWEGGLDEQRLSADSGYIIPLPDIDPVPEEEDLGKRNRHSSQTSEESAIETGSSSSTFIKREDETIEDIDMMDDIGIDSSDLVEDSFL
Description: (§4) In order to evaluate the inhibitory activity of the compounds synthesized according to the above examples on PDGFR-α(wt), PDGFR-β(wt), c-KIT(wt), and c-KIT(D816V) kinases, the following method was performed. The compounds of examples were reacted with purified human PDGFR-α(wt) (Signalchem #P12-18G) enzyme, human PDGFR-β(wt) (Signalchem #P13-11G) enzyme, human c-KIT(wt) (Signalchem #K06-11BG) enzyme, human c-KIT(D816V) (Signalchem #C06-12LG) enzyme, and the enzyme inhibitory abilities were evaluated by the following method.
(§5) The reaction buffer was used as a composition of 40 mM Tris-HCl pH7.4, 20 mM MgCl2, 0.5 mg/ml BSA, 50 μM DTT, and the reactions of all the tests were carried out on the reaction buffer. The compound was diluted in 12 steps using a serial dilution method from a 10 mM DMSO stock, and the enzyme activity was measured at a final compound concentration of 10˜0.00005645 μM. During the test, the enzyme activity was confirmed using in vitro ADP-Glo™ kinase assay (Promega) after reacting with the proper concentration of human PDGFR-α(wt) enzyme, human PDGFR-β(wt), human c-KIT(wt) enzyme, and human c-KIT(D816V) enzyme with purified ATP and enzyme substrate at 25° C. for 1˜2 hours. At a ratio of 2:2:1, an enzyme-active reaction solution, an ADP-Glo reaction solution, and an enzyme-active detection solution were reacted to measure the inhibition of the enzyme's activity with luminoscence. Based on the […] of the enzyme activity of the solvent control that was not treated with the compound, the degree of enzyme activity inhibition was calculated according to the treatment concentration of each compound, and the concentration of each compound that inhibits 50% of enzyme activity was determined as IC50 (nM) value and the value was obtained by using GraphPad Prism 8.3.0 (GraphPad software Inc., San Diego) software. (A: IC50≤50 nM; B: 50 nM<IC50≤100 nM; C: 100 nM<IC50≤500 nM; D: IC50>500 nM).

c-KIT D816V = c-KIT D816V (Homo sapiens, UniProt P10721, D816V); assay: Enzyme inhibitory activity, ADP-Glo kinase assay, c-KIT(D816V); format: biochemical; design: purchased Signalchem C06-12LG; settings: read-out: c-KIT (D816V) (IC50 class)
c-KIT D816V, sequence (P10721 26-976 D816V): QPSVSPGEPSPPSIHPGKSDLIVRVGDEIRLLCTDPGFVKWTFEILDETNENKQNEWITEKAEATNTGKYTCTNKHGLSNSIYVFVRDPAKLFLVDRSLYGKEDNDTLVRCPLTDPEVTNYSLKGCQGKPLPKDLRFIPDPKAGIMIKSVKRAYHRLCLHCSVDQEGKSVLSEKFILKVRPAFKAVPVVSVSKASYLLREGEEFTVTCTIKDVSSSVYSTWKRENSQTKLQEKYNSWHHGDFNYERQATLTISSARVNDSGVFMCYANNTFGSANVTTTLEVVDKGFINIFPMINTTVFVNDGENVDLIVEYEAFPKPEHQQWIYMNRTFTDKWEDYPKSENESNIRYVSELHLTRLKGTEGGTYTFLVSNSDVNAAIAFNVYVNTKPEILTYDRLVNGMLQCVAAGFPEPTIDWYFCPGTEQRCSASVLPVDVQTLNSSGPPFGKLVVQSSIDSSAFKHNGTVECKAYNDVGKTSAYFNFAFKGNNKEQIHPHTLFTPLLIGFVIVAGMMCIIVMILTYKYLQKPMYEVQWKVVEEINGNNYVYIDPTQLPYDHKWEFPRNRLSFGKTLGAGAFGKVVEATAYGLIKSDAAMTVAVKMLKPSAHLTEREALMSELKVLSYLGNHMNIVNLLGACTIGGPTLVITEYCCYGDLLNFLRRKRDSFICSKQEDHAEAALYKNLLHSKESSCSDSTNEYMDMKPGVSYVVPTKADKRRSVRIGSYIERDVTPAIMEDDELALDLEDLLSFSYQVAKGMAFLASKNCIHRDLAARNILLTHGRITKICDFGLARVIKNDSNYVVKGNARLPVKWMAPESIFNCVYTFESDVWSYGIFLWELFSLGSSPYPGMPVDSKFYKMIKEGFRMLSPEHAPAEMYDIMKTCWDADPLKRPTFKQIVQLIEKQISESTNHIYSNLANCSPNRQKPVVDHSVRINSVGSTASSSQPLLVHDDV
Description: as §4, §5

Ba/F3-TEL-PDGFRα(WT) = assay: Proliferation inhibitory activity on Ba/F3 cell (CellTiter-Glo, 72 hours), PDGFR-α; format: cell-based; settings: Mus musculus, BaF3, read-out: Ba/F3 (nM) Tel-PDGFRα (GI50 class)
Description: as §1, §2

human c-KIT(wt) = biological target: T3, human c-KIT(wt) (Homo sapiens, UniProt P10721); assay: Enzyme inhibitory activity, ADP-Glo kinase assay, c-KIT(wt); format: biochemical; settings: read-out: c-KIT (WT) (IC50 class)
T3 construct: purchased Signalchem K06-11BG
T3 sequence (P10721 26-976): as the sequence (P10721 26-976 D816V) above, with V791D counted along it
Description: as §4, §5

Row | Compound | GI50 (c-KIT D814Y) [nM] | GI50 (Ba/F3-TEL-PDGFβ(WT)) [nM] | GI50 (c-KIT V560G/D816V) [nM] | GI50 (Ba/F3-c-KIT(D816V)) [nM] | IC50 (human PDGFR-β(wt)) [nM] | IC50 (human PDGFR-α(wt)) [nM] | IC50 (c-KIT D816V) [nM] | GI50 (Ba/F3-TEL-PDGFRα(WT)) [nM] | IC50 (human c-KIT(wt)) [nM]
1 | CCN1CCCC(COc2cc3ncnc(-c4ccc(NC(=O)Cc5ccc(C(F)(F)F)cc5)cc4)c3cc2OC)C1 (stereo not shown) [Example 18, N-(4-(7-((1-ethylpiperidin-3-yl)methoxy)-6-methoxyquinazolin-4-yl)phenyl)-2-(4-(trifluoromethyl)phenyl)acetamide] | ≤ 200 | ≤ 200 | ≤ 200 | ≤ 200 | – | – | – | – | –
2 | COc1cc2ncnc(-c3ccc(NC(=O)Cc4ccc(C(F)(F)F)cc4)cc3)c2cc1OCCN1CCN(C)CC1 [Example 131, N-(4-(7-methoxy-6-(2-(4-methylpiperazin-1-yl)ethoxy)quinazolin-4-yl)phenyl)-2-(4-(trifluoromethyl)phenyl)acetamide] | 200 to 500 | – | 200 to 500 | ≤ 200 | ≤ 50 | – | – | – | –

The next lines start with the values.

Row | GI50 (c-KIT D814Y) [nM] | GI50 (Ba/F3-TEL-PDGFβ(WT)) [nM] | GI50 (c-KIT V560G/D816V) [nM] | GI50 (Ba/F3-c-KIT(D816V)) [nM] | IC50 (human PDGFR-β(wt)) [nM] | IC50 (human PDGFR-α(wt)) [nM] | IC50 (c-KIT D816V) [nM] | GI50 (Ba/F3-TEL-PDGFRα(WT)) [nM] | IC50 (human c-KIT(wt)) [nM] | Compound
3 | – | ≤ 200 | ≤ 200 | – | ≤ 50 | ≤ 50 | ≤ 50 | ≤ 200 | ≤ 50 | COCCOc1cc2ncnc(-c3ccc(NC(=O)Cc4ccc(C(F)(F)F)cc4)cc3)c2cc1OCCOC [Example 57, N-(4-(6,7-bis(2-methoxyethoxy)quinazolin-4-yl)phenyl)-2-(4-(trifluoromethyl)phenyl)acetamide]
4 | – | ≤ 200 | – | – | 50 to 100 | ≤ 50 | ≤ 50 | ≤ 200 | ≤ 50 | CCN(CC)CCOc1cc2c(-c3ccc(NC(=O)Cc4ccc(F)cc4)cc3)ncnc2cc1OC [Example 122, N-(4-(6-(2-(diethylamino)ethoxy)-7-methoxyquinazolin-4-yl)phenyl)-2-(4-fluorophenyl)acetamide]
5 | > 500 | ≤ 200 | > 500 | ≤ 200 | ≤ 50 | ≤ 50 | – | ≤ 200 | – | COc1cc2ncnc(-c3ccc(NC(=O)Cc4ccc(C(F)(F)F)cc4)cc3)c2cc1OC1CCNCC1 [Example 140, N-(4-(7-methoxy-6-(piperidin-4-yloxy)quinazolin-4-yl)phenyl)-2-(4-(trifluoromethyl)phenyl)acetamide]
